Assay results as given in US12071434B2, “Heterocyclic compound” (Takeda Pharmaceutical Company Limited, priority 2018, dated 2024).

Target: T1, human orexin type 2 receptor (Homo sapiens, UniProt O43614)
T1 construct: expressed in transfected cells
T1 sequence (O43614 1-444): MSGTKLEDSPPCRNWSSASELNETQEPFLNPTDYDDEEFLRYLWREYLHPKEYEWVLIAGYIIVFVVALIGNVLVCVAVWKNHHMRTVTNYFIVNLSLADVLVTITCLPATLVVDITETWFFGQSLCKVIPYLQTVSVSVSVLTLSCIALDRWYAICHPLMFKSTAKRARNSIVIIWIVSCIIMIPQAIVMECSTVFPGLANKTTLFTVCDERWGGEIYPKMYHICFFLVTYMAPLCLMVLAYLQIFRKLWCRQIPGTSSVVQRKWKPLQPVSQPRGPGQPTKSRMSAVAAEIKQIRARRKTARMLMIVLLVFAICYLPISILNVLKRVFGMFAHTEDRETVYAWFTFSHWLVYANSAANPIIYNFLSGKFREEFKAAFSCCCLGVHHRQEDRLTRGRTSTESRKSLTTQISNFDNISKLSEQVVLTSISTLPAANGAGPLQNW
Assay: Measurement of orexin type 2 receptor agonist activity (calcium fluorescence, Fluo-4 AM, FDSS) in CHO cells forcibly expressing human OX2 receptor
Assay type: cell-based
Conditions: test compound 3 μM, DMSO = 0%, orexin A (human) 10 nM = 100%
Summary of the method: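 CHO-dhfr cells stably expressing human OX2 receptor, loaded with Fluo-4 AM plus probenecid for 30 min at 37 °C, then 30 min at room temperature. Calcium fluorescence read for about 2 min 40 s after compound addition. Activity (%) scaled between DMSO (0%) and 10 nM human orexin A (100%).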

Row | Compound | 0X2R agonist activity (3 μM, %)
1 | CCn1ccc2c(c1=O)[C@@H](Cc1cccc(-c3cccc(C)c3)c1F)[C@@H](NS(C)(=O)=O)CC2 (racemic) [Example 93, rac-N-{(7S,8R)-2-ethyl-8-[(2-fluoro-3′-methyl[1,1′-biphenyl]-3-yl)methyl]-1-oxo-1,2,5,6,7,8-hexahydroisoquinolin-7-yl}methanesulfonamide] | 101%
2 | CCS(=O)(=O)NC1CCc2c(C)nn(C)c(=O)c2C1Cc1cccc(-c2ccccc2)c1 (racemic) [Example 97, rac-N-{(5R,6S)-5-[([1,1′-biphenyl]-3-yl)methyl]-1,3-dimethyl-4-oxo-3,4,5,6,7,8-hexahydrophthlalazin-6-yl}ethanesulfonamide] | 82%
3 | CC(C)(O)c1ccc2n(c1=O)[C@@H](Cc1cccc(-c3ccccc3)c1)[C@@H](NS(C)(=O)=O)CC2 (racemic) [Example 33, rac-N-[(3S,4S)-4-[([1,1′-biphenyl]-3-yl)methyl]-7-(2-hydroxypropan-2-yl)-6-oxo-1,3,4,6-tetrahydro-2H-quinolizin-3-yl]methanesulfonamide] | 87%
4 | CCc1ccc2n(c1=O)[C@@H](Cc1cccc(-c3cc(F)cc(F)c3)c1F)[C@@H](NS(C)(=O)=O)CC2 (racemic) [Example 132, rac-N-{[3S,4S)-7-ethyl-6-oxo-4-[(2,3′,5′-trifluoro[1,1′-biphenyl]-3-yl)methyl]-1,3,4,6-tetrahydro-2H-quinolizin-3-yl}methanesulfonamide] | 104%
5 | CC(C)n1cnc2c(c1=O)[C@@H](Cc1cccc(-c3cccc(F)c3F)c1F)[C@@H](NS(=O)(=O)CF)CC2 [Example 196, 1-fluoro-N-{(5R,6S)-4-oxo-3-(propan-2-yl)-5-[(2,2′,3′-trifluoro[1,1′-biphenyl]-3-yl)methyl]-3,4,5,6,7,8-hexahydroquinazolin-6-yl}methanesulfonamide] | 91%
6 | Cn1ccc2c(c1=O)[C@@H](Cc1cccc(-c3ccccc3)c1)[C@@H](NS(C)(=O)=O)CC2 (racemic) [Example 46, rac-N-{(7S,8R)-8-[([1,1′-biphenyl]-3-yl)methyl]-2-methyl-1-oxo-1,2,5,6,7,8-hexahydroisoquinolin-7-yl}methanesulfonamide] | 102%
7 | CC(C)c1ccc2n(c1=O)[C@@H](Cc1cccc(-c3cccc(F)c3)c1F)[C@@H](NC(=O)C(=O)N(C)C)CC2 (racemic) [Example 40, rac-N~2~-[(3S,4S)-4-[(2,3′-difluoro[1,1′-biphenyl]-3-yl)methyl]-6-oxo-7-(propan-2-yl)-1,3,4,6-tetrahydro-2H-quinolizin-3-yl]-N~1~,N~1~-dimethylethanediamide] | 93%
8 | CC(C)n1cnc2c(c1=O)[C@@H](Cc1cccc(-c3ccccc3)c1)[C@@H](NS(=O)(=O)C1(F)CC1)CC2 (racemic) [Example 146, rac-N-[(5R,6S)-5-[([1,1′-biphenyl]-3-yl)methyl]-4-oxo-3-(propan-2-yl)-3,4,5,6,7,8-hexahydroquinazolin-6-yl]-1-fluorocyclopropane-1-sulfonamide] | 96%
9 | CC(C)n1cnc2c(c1=O)[C@@H](Cc1cccc(-c3ccccc3)c1F)[C@@H](NS(=O)(=O)C1CC1)[C@H](F)C2 (relative stereo) [Example 206, rel-N-[(5R,6R,7R)-7-fluoro-5-[(2-fluoro[1,1′-biphenyl]-3-yl)methyl]-4-oxo-3-(propan-2-yl)-3,4,5,6,7,8-hexahydroquinazolin-6-yl]cyclopropanesulfonamide] | 96%
10 | Cc1nc2c(c(=O)n1C(C)C)[C@@H](Cc1cccc(-c3ccccc3)c1)[C@@H](NS(C)(=O)=O)CC2 (racemic) [Example 70, rac-N-{(5R,6S)-5-[([1,1′-biphenyl]-3-yl)methyl]-2-methyl-4-oxo-3-(propan-2-yl)-3,4,5,6,7,8-hexahydroquinazolin-6-yl}methanesulfonamide] | 97%
11 | CC(C)n1cnc2c(c1=O)[C@@H](Cc1csc(-c3ccccc3)n1)[C@@H](NS(=O)(=O)C1CC1)CC2 (relative stereo) [Example 169, rel-N-[(5R,6S)-4-oxo-5-[(2-phenyl-1,3-thiazol-4-yl)methyl]-3-(propan-2-yl)-3,4,5,6,7,8-hexahydroquinazolin-6-yl]cyclopropanesulfonamide] | 91%
12 | CCn1cc2n(c1=O)[C@@H](Cc1cccc(-c3ccccc3)c1F)[C@@H](NS(C)(=O)=O)CC2 (racemic) [Example 204, rac-N-{(5S,6S)-2-ethyl-5-[(2-fluoro[1,1′-biphenyl]-3-yl)methyl]-3-oxo-2,3,5,6,7,8-hexahydroimidazo[1,5-a]pyridin-6-yl}methanesulfonamide] | 91%
13 | Cc1ccc2n(c1=O)[C@@H](Cc1cccc(-c3cc(F)cc(F)c3)n1)[C@@H](NS(C)(=O)=O)CC2 (racemic) [Example 60, rac-N-[(3S,4S)-4-{[6-(3,5-difluorophenyl)pyridin-2-yl]methyl}-7-methyl-6-oxo-1,3,4,6-tetrahydro-2H-quinolizin-3-yl]methanesulfonamide] | 83%
14 | CCn1ccc2c(c1=O)[C@@H](Cc1cccc(-c3cccc(F)c3F)c1)[C@@H](NS(C)(=O)=O)CC2 (racemic) [Example 124, rac-N-{(7S,8R)-8-[(2′,3′-difluoro[1,1′-biphenyl]-3-yl)methyl]-2-ethyl-1-oxo-1,2,5,6,7,8-hexahydroisoquinolin-7-yl}methanesulfonamide] | 105%
15 | CC(C)n1cnc2c(c1=O)[C@@H](Cc1cccc(-c3cccc(F)c3)c1F)[C@@H](NS(=O)(=O)C1(F)CC1)CC2 [Example 181, N-[(5R,6S)-5-[(2,3′-difluoro[1,1′-biphenyl]-3-yl)methyl]-4-oxo-3-(propan-2-yl)-3,4,5,6,7,8-hexahydroquinazolin-6-yl]-1-fluorocyclopropane-1-sulfonamide] | 91%
16 | Cn1cc2n(c1=O)C(Cc1cccc(-c3ccccc3)c1)C(NC(=O)[C@@H]1CCCO1)CC2 (mixture of isomers) [Example 205, (2S)-N-{(5SR,6SR)-5-[([1,1′-biphenyl]-3-yl)methyl]-2-methyl-3-oxo-2,3,5,6,7,8-hexahydroimidazo[1,5-a]pyridin-6-yl}oxolane-2-carboxamide] | 81%
17 | CC(C)n1cnc2c(c1=O)[C@@H](Cc1cccc(-c3ccccc3F)c1)[C@@H](NS(=O)(=O)C1CC1)CC2 [Example 192, N-[(5R,6S)-5-[(2′-fluoro[1,1′-biphenyl]-3-yl)methyl]-4-oxo-3-(propan-2-yl)-3,4,5,6,7,8-hexahydroquinazolin-6-yl]cyclopropanesulfonamide] | 101%
18 | CC(C)n1cnc2c(c1=O)[C@@H](Cc1cc(F)cc(-c3ccccc3)c1)[C@@H](NS(C)(=O)=O)CC2 (relative stereo) [Example 141, rel-N-[(5R,6S)-5-[(5-fluoro[1,1′-biphenyl]-3-yl)methyl]-4-oxo-3-(propan-2-yl)-3,4,5,6,7,8-hexahydroquinazolin-6-yl]methanesulfonamide] | 103%
19 | CCS(=O)(=O)N[C@H]1CCc2ncn(C(C)C)c(=O)c2[C@H]1Cc1cccc(-c2cccc(F)c2F)c1 [Example 200, N-[(5R,6S)-5-[(2′,3′-difluoro[1,1′-biphenyl]-3-yl)methyl]-4-oxo-3-(propan-2-yl)-3,4,5,6,7,8-hexahydroquinazolin-6-yl]ethanesulfonamide] | 89%
20 | CC(C)n1cnc2c(c1=O)C(Cc1cccc(-c3cccc(F)c3F)c1)C(NS(=O)(=O)C1(F)CC1)CC2 (stereo not drawn) [Example 191, rel-N-{5-[(2′,3′-difluoro[1,1′-biphenyl]-3-yl)methyl]-4-oxo-3-(propan-2-yl)-3,4,5,6,7,8-hexahydroquinazolin-6-yl}-1-fluorocyclopropane-1-sulfonamide] | 90%
21 | CCS(=O)(=O)N[C@H]1CCc2ncn(C(C)C)c(=O)c2[C@H]1Cc1cccc(-c2ccccc2)c1 (racemic) [Example 80, rac-N-[(5R,6S)-5-[([1,1′-biphenyl]-3-yl)methyl]-4-oxo-3-(propan-2-yl)-3,4,5,6,7,8-hexahydroquinazolin-6-yl]ethanesulfonamide] | 93%
